These results are taken from patent US9220705B2, “Method of treating colorectal cancer” (priority 2013, dated 2015).

Data set [1] relates to panel of human tumor cell lines (A431, MCF-7, A375, HCT-15, SW480, CaCo-2, DLD-1). As to the kind of experiment: MTT cytotoxicity, comparison over the Table 1 panel. The conditions noted are these: average over seven cell lines of Table 1. The format is cell-based. As to the method:
(§1) After 24 h, the medium was removed and replaced with a fresh one containing the compound to be studied, at the appropriate concentration, dissolved in 0.9% sodium chloride solution just before use. Triplicate cultures were established for each treatment. After 72 h, each well was treated with […] of a 5 mg mL^−1 MTT saline solution and, after 5 h of incubation, 100 μL of a sodium dodecylsulfate (SDS) solution in 0.01 M HCl were added. After an overnight incubation, the inhibition of cell growth induced by the tested complexes was determined by measuring the absorbance of each well at 570 nm using a BioRad 680 microplate reader. Mean absorbance for each drug dose was expressed as percentage of the control and plotted vs. drug concentration. Dose-response curves were fitted and IC50 values were calculated with four parameter logistic model (4PL).
The cytotoxicity was evaluated by means of the MTT test for 72 h treatment with increasing concentrations of the tested compounds.

Data set [2] is classed as physicochemical. The source says: Lipophilicity is usually expressed in terms of n-octanol/water partition coefficient, log Po/w, and correlates with cellular uptake by passive diffusion (Liu, X., et al., Pharm. Res. 2011, 28, 962-977).
Since RP-HPLC retention is due to partitioning between mobile (polar) and stationary (apolar) phases, there is a good correlation between capacity factor k′ (k′=(tR−t0)/t0, where t0 is the retention time for an unretained compound and tR is the retention time of the analyte) and partition coefficient (log Po/w=a+b log k′). Thus the HPLC procedure represents a good alternative to the time- and material-consuming shake-flask method. […] This implies that there are specific import (CTR1, OCT, etc.) or export (ATP7B) mechanisms which operate selectively on the different types of complexes.

The test system of data set [3] is Lewis lung carcinoma (LLC). As to the kind of experiment: In vivo anticancer activity toward Lewis lung carcinoma. Also on record: species or system C57BL mice. The conditions noted are these: LLC-bearing mice. On the procedure:
All studies involving animal testing were carried out in accordance with the ethical guidelines for animal research adopted by the University of Padua, acknowledging the Italian regulation and the European Directive 86/609/EEC as to animal welfare and protection and the related codes of practice. The mice were purchased from Charles River, Italy, and housed in steel cages under controlled environmental conditions (constant temperature, humidity, and 12 h dark/light cycle) and alimented with commercial standard feed and tap water ad libitum. Animals were observed daily, and body weight and food intake recorded. The Lewis lung carcinoma (LLC) cell line was purchased from ECACC, UK. The LLC cell line was maintained in D-MEM (Euroclone) supplemented with 10% heat-inactivated FBS (Euroclone), 10 mM L-glutamine, 100 U mL^−1 penicillin, and 100 μg mL^−1 streptomycin in a 5% CO2 air incubator at 37° C.
The Lewis lung carcinoma (LLC) was implanted i.m. as a 2×10^6 cell inoculum into the right hind leg of 8-week old male and female C57BL mice (24±3 g body weight). […] At day 15, animals were sacrificed, the legs were amputated at the proximal end of the femur, and the inhibition of tumor growth was determined according to the difference in weight of the tumor-bearing leg and the healthy leg of the animals expressed as % referred to the control animals. Body weight was measured every two days and was taken as a parameter for systemic toxicity.
All the values are the means±S.D. of not less than three measurements. Multiple comparisons were made by Tukey-Kramer test (**p<0.01; *p or °p<0.05).
The in vivo antitumor activity of compound 1 was evaluated in a model of solid tumor, the syngeneic murine Lewis lung carcinoma (LLC). […] For the assessment of the adverse side effects, changes in body weights of tumor-bearing mice were monitored daily (FIG. 3).

Data set [4] deals with LoVo colorectal adenocarcinoma xenografts. Description: In vivo anticancer activity, oxaliplatin-sensitive colorectal xenograft. Also on record: species or system BALB/c nu/nu mice. To be noted: LoVo xenograft mice, day 14 to day 30; FIG. 5 panel A. On the procedure:
(§2) LoVo and LoVo-OXP tumor xenografts were established in 6-week-old BALB/c nu/nu mice by injecting 1×10^7 tumor cells subcutaneously (100 μL in serum free medium) on the left dorsal flank. After 24 h from tumor implantation, mice were randomly divided into five groups (6 animals per group, 8 controls). Chemotherapy was delayed until the tumor became palpable (day 14). From day 14, 1 was dosed daily at 3 mg/kg ip whereas OXP was dosed daily at 2 mg/kg ip. Measurements of body weights and tumor volumes were recorded every 2 days until the experimental endpoint. The long axis (L) and the short axis (S) were measured with caliper, and the tumor volume (V) was calculated using the following equation: V=S×S×L/2. At day 30, animals were sacrificed, and the inhibition of tumor growth was determined by comparing the volume of the control group and the treatment group expressed as % referred to the control animals.
(§3) All the values are the means±S.D. of not less than three measurements. Multiple comparisons were made by Tukey-Kramer test (**p<0.01; *p<0.05).

Data set [5] has as its system LoVo-OXP colorectal adenocarcinoma xenografts. As to the kind of experiment: In vivo anticancer activity, oxaliplatin-resistant colorectal xenograft. The conditions noted are these: LoVo-OXP xenograft mice, day 14 to day 30; FIG. 5 panel B. Also on record: species or system BALB/c nu/nu mice. As to the method:
as §2, §3

A short description of a further data set: Aqueous solubility. The data set is classed as physicochemical. To be noted: compared to compound 2.
Data set [6] deals with 2008/C13*, LoVo/LoVo-OXP, LoVo MDR. As to the kind of experiment: MTT cytotoxicity, comparison over the Table 2 cell lines. The format is cell-based, human. The conditions noted are these: 2008 ovarian and LoVo colon sensitive cells. On the procedure: as §1
A LoVo cell line retaining a multidrug resistance phenotype was also considered (LoVo MDR). Cross-resistance profiles were evaluated by means of the resistance factor (RF), which is defined as the ratio between the IC50 value for the resistant cells and that arising from the sensitive cells (Table 2).

Data set [7] relates to human ovarian A2780 cancer cell line. To be noted: Kasparkova 2010; cited from earlier work.

Take `[Cl][Pt]1([Cl])[NH]C2CCC(CC2)[NH]1` [Compound 1, [SP-4-2-(cis)]-dichloro(1,4-cyclohexanediamine-N,N′)platinum]: the “average cytotoxic activity compared with reference drugs” value in data set [1] was “slightly more effective than oxaliplatin”. In data set [2], the “log Po/w” value is on record as −1.57±0.10. The “body weight loss compared with cisplatin” value in data set [3] (1.5 mg kg^−1 each, FIG. 3) is “about half that caused by cisplatin”. The “tolerability compared with cisplatin” value in data set [3] (daily i.p.) is “better tolerated than cisplatin”. Besides, the “adverse side effects (body weight loss) compared with cisplatin” value in data set [3] (compound 1 at 3 mg kg^−1, FIG. 3) was “smaller adverse side effects than cisplatin”. In addition, the body weight loss entry in data set [4] and in data set [5] was “roughly equivalent to that obtained by using the parent drug oxaliplatin” each time. Also, the aqueous solubility entry in “Aqueous solubility” was “enhanced aqueous solubility compared to compound 2”. Also, the “cytotoxic activity towards sensitive lines compared with reference drugs” value in data set [6] is “as good as oxaliplatin and better than cisplatin”. For the same compound, the “cytotoxicity, fold greater than cisplatin” value in data set [7] is 3.4-5.4.
